{"source": "patent US5030624A", "about": "“R-diastereomer of an N^6 -[(2-hydroxypropyl)aryl]adenosine and its medicinal uses” (G. D. Searle & Co., priority 1988, dated 1991)", "key": {"[1]": {"system": "plasma renin activity (PRA)", "assay": "Change in plasma renin activity (PRA) in the bilateral renal artery ligated rat", "type": "in vivo, rat (Sprague-Dawley)", "details": "1 mg/kg I.V.; for prevention of PRA increases / inhibition of renin release (in words): 30 and 60 minutes; for CHANGE IN PRA: ^+ different from vehicle, p < .05", "description": "Adenosine Al receptor stimulation will inhibit the release of renin from the kidney. A stimulus for the release of renin is renal ischemia. The ability of the compounds of the present invention to prevent an increase in PRA following renal ischemia was tested in rats with both renal arteries ligated. Sprague-Dawley rats were anesthetized with ether and the renal arteries were ligated. Three to five hours after anesthesia, arterial blood was sampled and compounds I and II were administered in polyethylene glycol at 1 mg/kg I.V. At 30 and 60 minutes after administration, arterial blood was sampled for PRA measurement by the method of Sealy, J. E. et al., Cardiovasc. Med. 2:1079, 1977."}, "[2]": {"system": "spontaneously hypertensive rats (SHR)", "assay": "Effects on MAP and HR in conscious spontaneously hypertensive rats (SHR), I.V. or intragastric", "type": "in vivo, rat", "description": "The effects of compounds I and II were tested intravenously or intragastrically in conscious spontaneously hypertensive rats (SHR). The rats were anesthetized with ether and the left carotid artery and right jugular vein were cannulated with polyethylene tubing. The rats were allowed three to five hours recovery from anesthesia for the I.V. studies and 12 to 18 hours for the oral studies. Mean arterial pressure (MAP, in mm/Hg) and heart rate (HR, beats/min.) were measured from the artery; intravenous administration of compounds was performed by injection into the vein. Oral administration was performed by gastric intubation. Compounds were dissolved in DMSO for I.V. studies and injected in volumes of 100 μl/kg or less (N=5 per compound). Doses were 3 to 1,000 μg/kg. Compounds were dissolved in polyethylene glycol for oral administration and injected in volumes of 1 ml/kg at a dose of 20 mg/kg/day for three days (N=3 to 6 per compound).\nThe resting MAP and HR for the SHR ranged between 160-200 mm Hg and 330/350 b/min., respectively.\nThus, the effects of the three compounds on MAP and HR were indistinguishable both by I.V. and oral administration."}, "[3]": {"system": "mice", "assay": "Behavioral toxicity at various times in mice; for MOTOR DEPRESSION: key: +: toxic symptom observed; +*: toxic symptom observed; *2/7; for PTOSIS: key: +: toxic symptom observed; +*: toxic symptom observed; *2/7; for RESPIRATORY DEPRESSION: key: +: toxic symptom observed; +*: toxic symptom observed; *2/7; for loss of righting reflex: key: +: toxic symptom observed; +*: toxic symptom observed; *2/7", "type": "in vivo", "description": "The mice had previously been trained to remain on a rotating rod. After dosing, the percent of mice unable to remain on the rotating rod was determined. […] The mice were also observed at various time intervals for behavioral signs of toxicity."}, "[4]": {"system": "mice", "assay": "Ataxia on rotating rod in mice", "type": "in vivo", "details": "ip, 0.5 or 3 hours", "description": "Adenosine analogs tend to produce sedation and central nervous system depression which have prevented their therapeutic utility. The compounds of the invention, at doses which lower arterial pressure in the SHR, show no evidence of CNS depression. The ataxia produced by compounds of the present invention was measured in mice by injecting the compounds IP at doses of 32, 56, or 75 mg/kg in an aqueous suspension, n=7 per dose. The mice had previously been trained to remain on a rotating rod. After dosing, the percent of mice unable to remain on the rotating rod was determined. […] The mice were also observed at various time intervals for behavioral signs of toxicity."}, "[5]": {"assay": "Solubility of the separated diastereomers", "type": "physicochemical", "details": "for solubility in MeOH (in words): S isomer and R isomer compared"}, "[6]": {"system": "adenosine Al receptor in the granular juxtaglomerular cells of the kidney", "details": "Federation Proceedings 44:879 & 1643, 1985; cited from earlier work"}, "[7]": {"system": "hypertensive models", "details": "Federation Proceedings 44:879 & 1643, 1985; cited from earlier work"}, "[8]": {"details": "SHR, 20 mg/kg/day intragastric, day 2 of oral administration, N=3 to 6"}}, "note": "“Also recorded” adds a separate entry of the source.", "data": [{"smiles": "OC[C@H]1O[C@@H](n2cnc3c(NC[C@@H](O)COc4cccc5ccccc45)ncnc32)[C@H](O)[C@@H]1O", "note": "[Compound II, N^6-[2R-hydroxy-3-(1-naphthalenyloxy)propyl]-adenosine]", "values": [{"measurement": "prevention of PRA increases / inhibition of renin release (in words)", "setting": "[1]", "result": "prevented to the same extent"}, {"measurement": "CHANGE IN PRA", "setting": "[1]; 30 minutes after dosing", "result": -6.6, "unit": "ngAI/ml/hr"}, {"measurement": "CHANGE IN PRA", "setting": "[1]; 60 minutes after dosing", "result": -6.3, "unit": "ngAI/ml/hr"}, {"measurement": "ED (HR decrease by 100 b/min)", "setting": "[2]; Rattus norvegicus, iv, conscious SHR, I.V. in DMSO, N=5 per compound, read-out: IV DOSE TO DECREASE HR by 100 b/min", "result": "0.031 ± 0.0014", "unit": "mg/kg"}, {"measurement": "ED (MAP decrease by 40 mmHg)", "setting": "[2]; Rattus norvegicus, iv, conscious SHR, I.V. in DMSO, N=5 per compound, read-out: IV DOSE TO DECREASE MAP by 40 mmHg", "result": "0.033 ± 0.0012", "unit": "mg/kg"}, {"measurement": "MAXIMUM DECREASE AT 20 MG/KG ig: HR", "setting": "[2]; [8]", "result": "177 ± 19", "unit": "b/min"}, {"measurement": "MAXIMUM DECREASE AT 20 MG/KG ig: MAP", "setting": "[2]; [8]", "result": "50 ± 14", "unit": "mmHg"}, {"measurement": "toxicity (in words)", "setting": "[3]; 18-20 hours, 75 mg/kg ip", "result": "no toxicity was observed"}, {"measurement": "MOTOR DEPRESSION", "setting": "[3]; 0.5 hr, 75 mg/kg ip", "result": "+"}, {"measurement": "PTOSIS", "setting": "[3]; 0.5 hr, 75 mg/kg ip", "result": "+"}, {"measurement": "RESPIRATORY DEPRESSION", "setting": "[3]; 0.5 hr, 75 mg/kg ip", "result": "+"}, {"measurement": "MOTOR DEPRESSION", "setting": "[3]; 3 hr, 75 mg/kg ip", "result": "+"}, {"measurement": "PTOSIS", "setting": "[3]; 3 hr, 75 mg/kg ip", "result": "+"}, {"measurement": "RESPIRATORY DEPRESSION", "setting": "[3]; 3 hr, 75 mg/kg ip", "result": "+"}, {"measurement": "overall toxicity compared with compound I (in words)", "setting": "[3]; mice, ip, ataxia and behavioral toxicity", "result": "substantially less toxic than compound I; also recorded: unexpectedly less toxic than compound I, both with regard to ataxia and behavioral toxicity; also recorded: less central nervous system toxicity than the racemic mixture"}, {"measurement": "ataxia / motor toxicity (in words)", "setting": "[4]", "result": "less ataxia at 0.5 or 3 hours as compared to compound I; also recorded: less motor toxicity than compound I"}, {"measurement": "solubility in MeOH (in words)", "setting": "[5]", "result": "more soluble in MeOH"}, {"measurement": "solubility (in words)", "setting": "[5]; R diastereomer, solvent not stated", "result": "different solubility"}]}, {"smiles": "OC[C@H]1O[C@@H](n2cnc3c(NC[C@H](O)COc4cccc5ccccc45)ncnc32)[C@H](O)[C@@H]1O", "note": "[S isomer]", "values": [{"measurement": "solubility in MeOH (in words)", "setting": "[5]", "result": "less soluble in MeOH"}]}, {"smiles": "OC[C@H]1O[C@@H](n2cnc3c(NCC(O)COc4cccc5ccccc45)ncnc32)[C@H](O)[C@@H]1O", "note": "(mixture of isomers) [Compound I, N(6)-[2-hydroxy-3-(1-naphthyloxy)propyl]-adenosine]", "values": [{"measurement": "binding to the adenosine Al receptor, inhibition of renin release (in words)", "setting": "[6]", "result": "binds to the adenosine Al receptor in the granular juxtaglomerular cells of the kidney to inhibit release of renin into the plasma"}, {"measurement": "prevention of PRA increases / inhibition of renin release (in words)", "setting": "[1]", "result": "prevented to the same extent"}, {"measurement": "arterial blood pressure and heart rate (in words)", "setting": "[7]", "result": "reducing arterial blood pressure and heart rate in hypertensive models"}, {"measurement": "toxicity (in words)", "setting": "[3]; 18-20 hours, 75 mg/kg ip", "result": "still producing several of the toxic symptoms"}, {"measurement": "FLACCIDITY, animals affected (footnote)", "setting": "[3]; 18-20 hr, 75 mg/kg ip", "result": "2/7"}, {"measurement": "MOTOR DEPRESSION", "setting": "[3]; 18-20 hr, 75 mg/kg ip", "result": "+"}, {"measurement": "PTOSIS", "setting": "[3]; 18-20 hr, 75 mg/kg ip", "result": "+"}, {"measurement": "RESPIRATORY DEPRESSION", "setting": "[3]; 18-20 hr, 75 mg/kg ip", "result": "+"}, {"measurement": "MOTOR DEPRESSION", "setting": "[3]; 0.5 hr, 75 mg/kg ip", "result": "+"}, {"measurement": "PTOSIS", "setting": "[3]; 0.5 hr, 75 mg/kg ip", "result": "+"}, {"measurement": "RESPIRATORY DEPRESSION", "setting": "[3]; 0.5 hr, 75 mg/kg ip", "result": "+"}, {"measurement": "toxicity (in words)", "setting": "[3]; 3 hours, 75 mg/kg ip", "result": "flaccidity and loss of righting reflex"}, {"measurement": "FLACCIDITY", "setting": "[3]; 3 hr, 75 mg/kg ip", "result": "+"}, {"measurement": "LOSS OF RIGHTING REFLEX", "setting": "[3]; 3 hr, 75 mg/kg ip", "result": "+"}, {"measurement": "MOTOR DEPRESSION", "setting": "[3]; 3 hr, 75 mg/kg ip", "result": "+"}, {"measurement": "PTOSIS", "setting": "[3]; 3 hr, 75 mg/kg ip", "result": "+"}, {"measurement": "RESPIRATORY DEPRESSION", "setting": "[3]; 3 hr, 75 mg/kg ip", "result": "+"}]}]}
